PubChem BioAssay (NCI)
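At the GI50, growth is halved. TGI is the concentration that stops growth completely.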

Experiments:
Assay in all cases: growth of human tumour cells (NCI), 384-well format
[1] = test system: RPMI-8226 leukemia
[2] = test system: DU-145 prostate
[3] = test system: NCI-H322M lung
[4] = test system: SF-539 CNS
[5] = test system: KM12 colon
[6] = test system: SF-295 CNS
[7] = test system: SW-620 colon
[8] = test system: HOP-92 NSCLC
[9] = test system: HOP-62 NSCLC
[10] = test system: MDA-MB-435 melanoma
[11] = test system: UACC-62 melanoma
[12] = test system: NCI-H226 lung
[13] = test system: NCI/ADR-RES ovarian
[14] = test system: HL-60(TB) leukemia
[15] = test system: TK-10 renal
[16] = test system: UO-31 renal
[17] = test system: U251 glioblastoma
[18] = test system: SK-OV-3 ovarian
[19] = test system: SK-MEL-28 melanoma
[20] = test system: CAKI-1 renal
[21] = test system: NCI-H23 lung
[22] = test system: EKVX NSCLC
[23] = test system: SR leukemia
[24] = test system: SF-268 CNS
[25] = test system: M14 melanoma
[26] = test system: A549 NSCLC
[27] = test system: RXF 393 renal
[28] = test system: BT-549 breast
[29] = test system: NCI-H460 NSCLC
[30] = test system: HT29 colon
[31] = test system: SNB-19 CNS
[32] = test system: PC-3 prostate
[33] = test system: LOX IMVI melanoma
[34] = test system: MALME-3M melanoma
[35] = test system: OVCAR-3 ovarian
[36] = test system: OVCAR-8 ovarian
[37] = test system: HCT-15 colon
[38] = test system: A498 renal
[39] = test system: T-47D breast
[40] = test system: OVCAR-5 ovarian
[41] = test system: K-562 leukemia
[42] = test system: MDA-MB-231 breast
[43] = test system: UACC-257 melanoma
[44] = test system: HCC-2998 colon
[45] = test system: 786-0 renal
[46] = test system: SK-MEL-5 melanoma
[47] = test system: MOLT-4 leukemia
[48] = test system: OVCAR-4 ovarian
[49] = test system: HS 578T breast
[50] = test system: IGROV1 ovarian
[51] = test system: CCRF-CEM leukemia
[52] = test system: ACHN renal
[53] = test system: SN12C renal
[54] = test system: MDA-MB-468 breast
[55] = test system: COLO 205 colon
[56] = test system: NCI-H522 lung
[57] = test system: SNB-75 CNS

COc1ccc(-c2ccc3c(N4CCOC[C@@H]4C)nc(N4CCOC[C@@H]4C)nc3n2)cc1CO
GI50 [1]: < 10 nM | TGI [1]: 10 nM | GI50 [2]: 40.6 nM | TGI [2]: 13300 nM | GI50 [3]: 27.6 nM | TGI [3]: 11100 nM | GI50 [4]: 32.2 nM | TGI [4]: 11000 nM | GI50 [5]: 29.4 nM | TGI [5]: 11400 nM | GI50 [6]: 12.2 nM | TGI [6]: 87.7 nM | GI50 [7]: 120 nM | TGI [7]: 13300 nM | GI50 [8]: 19.1 nM | TGI [8]: 340 nM | GI50 [9]: 29.2 nM | TGI [9]: 1880 nM | GI50 [10]: 42.4 nM | TGI [10]: 562 nM | GI50 [11]: 18.9 nM | TGI [11]: 208 nM | GI50 [12]: 17.9 nM | TGI [12]: 284 nM | GI50 [13]: 102 nM | TGI [13]: 26700 nM | GI50 [14]: 322 nM | TGI [14]: 12800 nM | GI50 [15]: 93.8 nM | TGI [15]: 749 nM | GI50 [16]: 81.8 nM | TGI [16]: 19000 nM | GI50 [17]: 87.2 nM | TGI [17]: 17400 nM | GI50 [18]: 17.6 nM | TGI [18]: 365 nM | GI50 [19]: 19.9 nM | TGI [19]: 436 nM | GI50 [20]: 31.6 nM | TGI [20]: 842 nM | GI50 [21]: 60 nM | TGI [21]: 14300 nM | GI50 [22]: 23.3 nM | TGI [22]: 583 nM | GI50 [23]: 11.3 nM | TGI [23]: 43 nM | GI50 [24]: 62.9 nM | TGI [24]: 12900 nM | GI50 [25]: 19 nM | TGI [25]: 10500 nM | GI50 [26]: 20.4 nM | TGI [26]: 6350 nM | GI50 [27]: 27.3 nM | TGI [27]: 12000 nM | GI50 [28]: 18.2 nM | TGI [28]: 192 nM | GI50 [29]: < 10 nM | TGI [29]: 11900 nM | GI50 [30]: 102 nM | TGI [30]: 14700 nM | GI50 [31]: 249 nM | TGI [31]: 18500 nM | GI50 [32]: 16.1 nM | TGI [32]: 10200 nM | GI50 [33]: 31.6 nM | TGI [33]: 294 nM | GI50 [34]: < 10 nM | TGI [34]: 34.7 nM | GI50 [35]: 29.9 nM | TGI [35]: 11100 nM | GI50 [36]: 46.2 nM | TGI [36]: 11600 nM | GI50 [37]: 23.9 nM | TGI [37]: 11300 nM | GI50 [38]: < 10 nM | TGI [38]: 51.9 nM | GI50 [39]: < 10 nM | TGI [39]: 23.6 nM | GI50 [40]: 30.2 nM | TGI [40]: 1900 nM | GI50 [41]: 56.3 nM | TGI [41]: 13200 nM | GI50 [42]: 21.9 nM | TGI [42]: 11100 nM | GI50 [43]: 42.9 nM | TGI [43]: 396 nM | GI50 [44]: 77 nM | TGI [44]: 14900 nM | GI50 [45]: 42.2 nM | TGI [45]: 12100 nM | GI50 [46]: 10.5 nM | TGI [46]: 89.1 nM | GI50 [47]: 17.9 nM | TGI [47]: 322 nM | GI50 [48]: 12.9 nM | TGI [48]: 95.3 nM | GI50 [49]: 12.8 nM | TGI [49]: 56.3 nM | GI50 [50]: 12.2 nM | TGI [50]: 56.9 nM | GI50 [51]: 14.9 nM | TGI [51]: 1820 nM | GI50 [52]: 25.4 nM | TGI [52]: 11500 nM | GI50 [53]: 19 nM | TGI [53]: 11100 nM | GI50 [54]: 15.2 nM | TGI [54]: 56.7 nM | GI50 [55]: 24.4 nM | TGI [55]: 1350 nM | GI50 [56]: 22.9 nM | TGI [56]: 10000 nM | GI50 [57]: 14.3 nM | TGI [57]: 207 nM
